Patent US12441710B2, “Substituted piperidino compounds and related methods of treatment” (Alkermes, Inc., priority 2020, dated 2025)

Experiments:
[1] = biological target: T1, human orexin-2 receptor (OX2R) (Homo sapiens, UniProt O43614); experiment: Human OX2R IP1 assay; format: cell-based; settings: T-Rex CHO cells stably overexpressing human OX2R; IP1 accumulation, 1 hr at 37 degrees C
T1 construct: expressed in transfected cells
T1 sequence (O43614 1-444): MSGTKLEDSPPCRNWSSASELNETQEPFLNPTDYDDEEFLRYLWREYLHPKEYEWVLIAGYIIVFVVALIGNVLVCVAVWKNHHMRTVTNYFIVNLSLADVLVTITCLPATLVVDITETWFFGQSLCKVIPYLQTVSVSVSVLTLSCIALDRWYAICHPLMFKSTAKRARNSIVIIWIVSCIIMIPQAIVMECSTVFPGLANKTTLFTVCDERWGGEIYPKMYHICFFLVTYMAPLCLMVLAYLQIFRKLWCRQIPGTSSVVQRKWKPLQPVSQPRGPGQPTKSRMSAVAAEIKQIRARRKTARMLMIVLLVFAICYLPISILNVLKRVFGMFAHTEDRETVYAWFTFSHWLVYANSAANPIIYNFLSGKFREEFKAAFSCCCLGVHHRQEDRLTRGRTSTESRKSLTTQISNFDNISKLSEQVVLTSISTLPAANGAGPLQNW
Protocol: T-Rex CHO cells stably overexpressing the human orexin-2 receptor (OX2R) were induced overnight with 1 μg/mL of doxycycline in a T225 flask. 24 hours post induction, cells were lifted with accutase and plated into a 384-well proxy plate at 30,000 cells/well. Cells were then treated with different test compounds in 1× stimulation buffer containing 10 mM Hepes, 1 mM CaCl2), 0.5 mM MgCl2, 4.2 mM KCl, 146 mM NaCl, 5.5 mM glucose, and 50 mM LiCl, pH 7.4, for 1 hr at 37 degrees C. Following incubation, the reaction was terminated by the addition of detection mix, which is composed of IP1-d2 and anti-IP1-cryptate diluted in lysis buffer as well as 1× stimulation buffer. The plates were allowed to incubate for 1 hour at room temperature and were then read in the EnVision® multimode plate reader, measuring inositol phosphate levels.
Cisbio IP1 is a cell-based functional assay quantifying the accumulation of inositol monophosphate (IP), a metabolite released as a result of orexin 2 receptor activation through the phospholipase C-Gq signaling pathway. This is a competitive immunoassay in which the IP1 produced by the cells upon receptor activation competes with the IP1 analog coupled to the d2 fluorophore (acceptor) for binding to an anti-IP1 monoclonal antibody labeled with Eu cryptate (donor). The measured HTRF-FRET based signal is inversely proportional to the IP1 concentration produced.
The EC50 values reported in Table 2 were obtained according to the human OX2R IP1 assay described above. Data are the mean EC50 values±S.E.M. The compound methyl (2R,3S)-3-((methylsulfonyl)amino)-2-(((cis-4-phenylcyclohexyl)oxy)methyl)-piperidine-1-carboxylate (sometimes referred to herein as Reference Compound A) is a reference compound which is disclosed in Example 5 of PCT publication no. WO2017/135306.

human hepatocytes = experiment: Hepatocytes stability assay (human hepatocytes); format: in vitro ADME; settings: hepatic clearance divided by liver blood flow, fu assumed unity
Protocol: (§1) In vitro metabolic stability was assessed using cryopreserved hepatocytes from male Sprague Dawley rats and a pool of 50 mixed gender humans (BioIVT, Baltimore, MD). The incubation mixtures were prepared by mixing 250 μL of pre-warmed KHB (Krebs-Henseleit buffer) containing 2×10^6 cell/mL of hepatocytes with 250 μL of pre-warmed KHB buffer containing 2 μM of test compounds in a 48-well plate, giving a final concentration of 1 μM test compound (0.1% DMSO) and 1×10^6 cell/mL of hepatocytes. The reaction mixture was incubated at 37 degrees C. A 50 μL aliquot of incubation mixture was taken at time points (0, 15, 30, 60, 120 and 240 minutes) and transferred into a 96-well plate containing 300 μL ice-cold acetonitrile (containing 30 ng/mL of labetalol and 10 ng/mL of Naltrexone-d3 as internal standards) and immediately placed in ice to terminate the reaction. Samples were centrifuged, and supernatants were transferred into 96-well plates for liquid chromatography with tandem mass spectrometry (LC-MS/MS) analysis to monitor the depletion of the test compound. Data was calculated as percent remaining by assuming zero-minute time point peak area ratio (analyte/IS) as 100% and dividing remaining time point peak area ratios by zero-minute time point peak area ratio. Data were fitted to a first-order decay model to determine half-life. From a plot of log (ln) peak area against time, the slope of the line was determined. Subsequently, half-life (T1/2) and intrinsic clearance (CLint) were calculated using the equations below: • Elimination rate constant (k)=(−slope) • Half-life (T1/2) min=0.693/k • Intrinsic Clearance (CLint) (mL/min/million cells)=(V×0.693)/T1/2 • V=incubation volume mL/number of cells The in vitro T1/2 was converted to in vitro intrinsic clearance (CLint,hep) in units of mL/min/kg using the formula shown below: The in vitro intrinsic clearance (CLint,hep) was scaled to in vivo hepatic clearance (CL,hep) using the following equation which was adapted from a well-stirred model. [formula] where Q is the liver blood flow and fu is the fraction unbound (assumed to be unity in this case). All parameters used in the calculation are shown below (Table 4). The extraction ratio (ER) was calculated by dividing the hepatic clearance of a compound to the liver blood flow. The data reported in Table 5 were obtained according to the human hepatocytes stability assay described above.

[2] = Hepatocytes stability assay (human hepatocytes); format: in vitro ADME; settings: both sexes, cryopreserved hepatocytes, 1 μM test compound, 1×10^6 cell/mL, read-out: CLint (μL/min/million cells)
Protocol: as §1

MDR1 = experiment: MDCK-MDR1 permeability assay; format: in vitro ADME; settings: dog, 3 μM test compound; for efflux ratio at 2 h, 3 μM: Papp (B→A) divided by Papp (A→B), read-out: Efflux ratio (ER); for Papp A→B at 2 h, 3 μM: apical to basolateral, 2 hours at 37 degrees C
Protocol: The bidirectional permeability (Apical to Basal and Basal to Apical directions) of test compounds in MDCK-MDR1 cells were evaluated using MDCK-MDR1 cells seeded in Solvo PreadyPort™ MDCK 96-well plate. Once the plate was received from ReadyCell (Barcelona, Spain), it was treated as per PreadyPort™ user's manual.
For the Apical to Basolateral (A→B) permeability, 80 μL of test compound (3 μM) co-dosed with LY (Lucifer Yellow) (100 μM) in HBSS (Hank's Balanced Salt Solution) assay buffer was added to the donor side (A) while 250 μL of HBSS buffer was added to the receiver side (B). For the Basolateral to Apical (B→A) permeability, 255 μL of test compound (3 μM) in HBSS assay buffer was added to the donor side (B) while 75 μL of HBSS buffer containing LY (100 μM) was added to the receiver side (A).
The plate was placed in an incubator set at 37 degrees C. After 10 minutes of pre-warming, 5 μL aliquot was taken from donor compartment and set aside as the dosing solution. The MDCK-MDR1 incubation plate was placed back into the incubator for 2 hours of incubation at 37 degrees C. After 2 hours of incubation, 25 μL and 5 μL aliquots were removed from the receiver and donor sides, respectively. To the 5 μL aliquots taken from the donor sides (before and after a 2-hour incubation) were diluted with 20 μL of the HBSS buffer. All samples were mixed with 150 μL with acetonitrile containing internal standard (IS) and 200 μL water, and analyzed by LC-MS/MS.
The apparent permeability (Papp) was calculated using the following formula: Papp=dQ/dt×1/A×C0 where: • dQ/dt: amount of translocated material over incubation time (nmol/s) • A: area of insert (0.14 cm^2 for PreadyPort™ MDR1-96) • C0: initial concentration of product applied in apical (A→B) or basal (B→A) compartment (nmol/mL).
The efflux ratio (ER) was measured by dividing the Papp (basolateral to apical direction) by Papp (apical to basolateral direction). It is a general measure of the involvement of active processes. An ER >2 is considered positive for active transport.
The data reported in Table 3 were obtained according to the MDCK-MDR1 permeability assay described above.

Sprague-Dawley rats = experiment: Assessment of wake promotion in Sprague-Dawley rats (EEG/EMG); format: in vivo, rat; settings: PO, 3 mpk; male Sprague-Dawley rats; 6-hour post-dose period
Protocol: Wake promotion was assessed using electroencephalography (EEG) and electromyography (EMG) in adult male Sprague-Dawley rats. All rats (Charles River Laboratories, Raleigh, NC, USA) were intraperitoneally implanted with telemetry devices (F50-EEE, Data Sciences International Inc., MN, USA) under isoflurane anesthesia. For EEG, stainless steel screws were implanted over frontal cortex and parietal cortex, and reference screws were placed over cerebellum. Additionally, an electrode was placed in neck muscle for EMG. Rats were given carprofen post-surgery and underwent a 7 to 10-day recovery period. Rats habituated to the experimental room for 7 days and were maintained on a 12-hour light-dark cycle.
EEG and EMG data were recorded using the DSI telemetry system and Ponemah software (Data Sciences International Inc., MN, USA). Sleep-wake stages were scored both manually and with Somnivore, a supervised machine learning software platform, in 10 second epochs. Records were visually inspected as needed post-processing.
All test compounds were dissolved in 5% DMSO and suspended in 95% saline with 0.5% methylcellulose and 0.5% tween. […] Unless otherwise indicated, all compounds were dosed orally. Recordings for each rat were initiated immediately after dosing and lasted for 6 hours post-dose.
Two key endpoints include wakefulness time and cortical activation time. […]

EC50 [1] | Extraction Ratio (ER) (human hepatocytes) | hepatocyte CLint at 1 μM [2] | efflux ratio at 2 h, 3 μM (MDR1) | Papp A→B at 2 h, 3 μM (MDR1) | Compound | Mean cortical activation time (% vehicle treatment) (Sprague-Dawley rats)
– | 0.94 | 100 µL/min/1e6 cells | 2.9 | 0.86 ×10⁻⁶ cm/s | CS(=O)(=O)N[C@H]1CCN(c2cccc3ccnn23)CC1COC1CCC(c2ccccc2)CC1 (some centres unmarked) [Compound 42] | –
– | 0.94 | 102 µL/min/1e6 cells | 8.8 | 2.4 ×10⁻⁶ cm/s | CS(=O)(=O)N[C@H]1CCN(c2cccc3ncnn23)CC1COC1CCC(c2ccccc2)CC1 (some centres unmarked) [Compound 43] | –
– | 0.95 | 133 µL/min/1e6 cells | 6.4 | 3 ×10⁻⁶ cm/s | CS(=O)(=O)N[C@H]1CCN(c2nccc3ncnn23)CC1COC1CCC(c2ccccc2)CC1 (some centres unmarked) [Compound 44] | –
– | 0.94 | 103 µL/min/1e6 cells | 2.2 | 1.9 ×10⁻⁶ cm/s | CS(=O)(=O)N[C@H]1CCN(c2nccc3ocnc23)CC1COC1CCC(c2ccccc2)CC1 (some centres unmarked) [Compound 45] | –
< 100 nM | – | – | – | – | O=S(=O)(N[C@H]1CCN(c2ccccn2)C[C@H]1CO[C@H]1CC[C@@H](c2ccccc2)CC1)C(F)(F)F [Compound 53] | 105.00 % vehicle treatment

Second part, the compound before the results:

Compound | EC50 [1] | Extraction Ratio (ER) (human hepatocytes) | hepatocyte CLint at 1 μM [2] | efflux ratio at 2 h, 3 μM (MDR1) | Papp A→B at 2 h, 3 μM (MDR1) | Mean cortical activation time (% vehicle treatment) (Sprague-Dawley rats)
CS(=O)(=O)N[C@H]1CCN(c2ccccn2)CC1COC1CCN(c2ncccn2)CC1 (some centres unmarked) [Compound 1] | > 1000 nM | 0.82 | 31 µL/min/1e6 cells | 12 | 2.7 ×10⁻⁶ cm/s | –
CS(=O)(=O)N[C@H]1CCN(c2ccccn2)C[C@H]1CO[C@H]1CC[C@@H](c2cccc(F)c2)CC1 [Compound 6] | < 100 nM | 0.87 | 44 µL/min/1e6 cells | 2.8 | 1.3 ×10⁻⁶ cm/s | –
CS(=O)(=O)N[C@H]1CCN(c2ccccn2)CC1COC1CCC(c2cccc(C(F)(F)F)c2)CC1 (some centres unmarked) [Compound 33] | – | 0.92 | 79 µL/min/1e6 cells | 15 | 0.07 ×10⁻⁶ cm/s | –
CS(=O)(=O)N[C@H]1CCN(c2ccccn2)CC1COC1CCC(c2cccc(C#N)c2)CC1 (some centres unmarked) [Compound 35] | – | 0.94 | 102 µL/min/1e6 cells | 12 | 1.3 ×10⁻⁶ cm/s | –
CS(=O)(=O)N[C@H]1CCN(Cc2ccccc2)CC1COC1CCC(c2ccccc2)CC1 (some centres unmarked) [Compound 36] | – | 0.90 | 58 µL/min/1e6 cells | > 12 | < 0.21 ×10⁻⁶ cm/s | –
C[C@@H](c1ccccc1)N1CC[C@H](NS(C)(=O)=O)C(COC2CCC(c3ccccc3)CC2)C1 (some centres unmarked) [Compound 37] | > 1000 nM | 0.94 | 99 µL/min/1e6 cells | 12 | 0.38 ×10⁻⁶ cm/s | –
C[C@H](c1ccccc1)N1CC[C@H](NS(C)(=O)=O)C(COC2CCC(c3ccccc3)CC2)C1 (some centres unmarked) [Compound 38] | > 1000 nM | 0.93 | 91 µL/min/1e6 cells | 3.2 | 0.74 ×10⁻⁶ cm/s | –
CS(=O)(=O)N[C@H]1CCN(Cc2ccccn2)CC1COC1CCC(c2ccccc2)CC1 (some centres unmarked) [Compound 39] | – | 0.90 | 59 µL/min/1e6 cells | 15 | 1.4 ×10⁻⁶ cm/s | –
CS(=O)(=O)N[C@H]1CCN(Cc2cccnc2)CC1COC1CCC(c2ccccc2)CC1 (some centres unmarked) [Compound 40] | – | 0.93 | 86 µL/min/1e6 cells | 8.2 | 1.3 ×10⁻⁶ cm/s | –
CS(=O)(=O)N[C@H]1CCN(Cc2ccncc2)CC1COC1CCC(c2ccccc2)CC1 (some centres unmarked) [Compound 41] | – | 0.94 | 107 µL/min/1e6 cells | 16 | 1.7 ×10⁻⁶ cm/s | –
